US7714017B2, “Carboxylic acid peri-substituted bicyclics for occlusive artery disease” (Decode Genetics, EHF, priority 2004, dated 2010)

Biological target: T1, prostanoid EP3 receptors (Homo sapiens, UniProt P43115)
T1 sequence (P43115 1-390): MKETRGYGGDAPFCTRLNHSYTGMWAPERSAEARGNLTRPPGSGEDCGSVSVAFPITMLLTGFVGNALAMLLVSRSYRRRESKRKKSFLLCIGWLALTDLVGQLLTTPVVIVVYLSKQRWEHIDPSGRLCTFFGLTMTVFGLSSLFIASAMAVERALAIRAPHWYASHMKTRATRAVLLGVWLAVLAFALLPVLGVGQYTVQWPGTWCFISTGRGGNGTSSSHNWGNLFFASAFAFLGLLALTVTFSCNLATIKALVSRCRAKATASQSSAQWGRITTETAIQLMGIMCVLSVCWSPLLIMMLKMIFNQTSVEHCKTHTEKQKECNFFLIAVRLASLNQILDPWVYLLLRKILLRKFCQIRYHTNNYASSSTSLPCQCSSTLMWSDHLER
Experiment: binding on prostanoid EP3 receptors (method of Abramovitz et al.)
Settings: Chart 1, read-out: Activity (EP3 receptor binding IC50 class)
Description: (§1) The compounds of the invention were assayed for their binding on prostanoid EP3 receptors according to the method of Abramovitz et al. [Bioch. Biophys. Acta, 1473, 285-293 (2000)]. […] Compounds with IC50<1 μM are shown as +++; compounds with IC50 1-10 μM are shown as ++; and compounds with IC50>10 μM are shown as +.
as §1, with “Acta.” for “Acta,”

SMILES | IC50 [nM]
Cn1cc(/C=C/C(=O)O)c2c(Oc3ccc(Cl)cc3)cccc21 [Compound A41, (E)-3-[4-(4-Chloro-phenoxy)-1-methyl-1H-indol-3-yl]-acrylic acid] | 1000 to 10000
O=C(O)C=Cc1cccc2c1N(Cc1ccc3ccccc3c1)C(=O)C2(O)C(F)(F)F (centres unmarked) [Compound A15, 3-(3-Hydroxy-1-naphthalen-2-ylmethyl-2-oxo-3-trifluoromethyl-2,3-dihydro-1H-indol-7-yl)-acrylic acid] | 1000 to 10000
O=C(O)/C=C/c1cccc2ccn(Cc3ccc4ccccc4c3)c12 [Compound A53, (E)-3-(1-Naphthalen-2-ylmethyl-1H-indol-7-yl)-acrylic acid] | < 1000
O=C(O)CCc1csc2ncc(C=Cc3ccc4ccccc4c3)n12 (mixture of isomers) [Compound A23, 3-[5-((E)-2-Naphthalen-2-yl-vinyl)-imidazo[2,1-b]thiazol-3-yl]-propionic acid] | 1000 to 10000
O=Cc1cn(Cc2ccc(Cl)cc2Cl)c2c(/C=C/C(=O)O)cccc12 [Compound A11, (E)-3-[1-(2,4-Dichloro-benzyl)-3-formyl-1H-indol-7-yl]-acrylic acid] | < 1000
Cn1cc(/C=C/C(=O)O)c2c(Oc3ccc(Cl)c(F)c3)cccc21 [Compound A43, (E)-3-[4-(4-Chloro-3-fluoro-phenoxy)-1-methyl-1H-indol-3-yl]-acrylic acid] | < 1000
Cn1cc(/C=C/C(=O)O)c2c(Oc3ccc(F)cc3F)cccc21 [Compound A37, (E)-3-[4-(2,4-Difluoro-phenoxy)-1-methyl-1H-indol-3-yl]-acrylic acid] | < 1000
CC12CCCC(CCC(=O)O)=C1N(Cc1ccc(F)c(F)c1)C(=O)C2 (centres unmarked) [Compound A50, 3-[1-(3,4-Difluoro-benzyl)-3a-methyl-2-oxo-2,3,3a,4,5,6-hexahydro-1H-indol-7-yl]-propionic acid] | 1000 to 10000
CC1(C)C(=O)N(Cc2ccc(Cl)cc2Cl)c2c(/C=C/C(=O)O)cccc21 [Compound A19, (E)-3-[1-(2,4-Dichloro-benzyl)-3,3-dimethyl-2-oxo-2,3-dihydro-1H-indol-7-yl]-acrylic acid] | 1000 to 10000

Continued, values first:

IC50 [nM] | SMILES
1000 to 10000 | O=C(O)/C=C/c1cccc2c1N(Cc1ccc(Cl)cc1Cl)C(=O)C2=O [Compound A17, (E)-3-[1-(2,4-Dichloro-benzyl)-2,3-dioxo-2,3-dihydro-1H-indol-7-yl]-acrylic acid]
1000 to 10000 | CC12CCCC(/C=C/C(=O)O)=C1N(Cc1cccc(Cl)c1Cl)C(=O)C2 (centres unmarked) [Compound A36, (E)-3-[1-(2,3-Dichloro-benzyl)-3a-methyl-2-oxo-2,3,3a,4,5,6-hexahydro-1H-indol-7-yl]-acrylic acid]
< 1000 | COc1cccc(CN2C(=O)CC3(C)CCCC(/C=C/C(=O)O)=C23)c1 (centres unmarked) [Compound A29, (E)-3-[1-(3-Methoxy-benzyl)-3a-methyl-2-oxo-2,3,3a,4,5,6-hexahydro-1H-indol-7-yl]-acrylic acid]
< 1000 | O=C(O)CCc1cccc2ccn(Cc3ccc4ccccc4c3)c12 [Compound A58, 3-(1-Naphthalen-2-ylmethyl-1H-indol-7-yl)-propionic acid]
1000 to 10000 | Cn1cc(/C=C/C(=O)O)c2c(Oc3ccc(F)cc3Cl)cccc21 [Compound A46, (E)-3-[4-(2-Chloro-4-fluoro-phenoxy)-1-methyl-1H-indol-3-yl]-acrylic acid]
1000 to 10000 | Cc1ccc(C)c(Cn2c(=O)oc3cccc(OCC(=O)O)c32)c1 [Compound A08, [3-(2,5-Dimethyl-benzyl)-2-oxo-2,3-dihydro-benzooxazol-4-yloxy]-acetic acid]
1000 to 10000 | Cn1cc(/C=C/C(=O)O)c2c(Oc3ccc(Cl)c(Cl)c3)cccc21 [Compound A39, (E)-3-[4-(3,4-Dichloro-phenoxy)-1-methyl-1H-indol-3-yl]-acrylic acid]
< 1000 | COCc1cn(Cc2ccc(Cl)cc2Cl)c2c(/C=C/C(=O)O)cccc12 [Compound A12, (E)-3-[1-(2,4-Dichloro-benzyl)-3-methoxymethyl-1H-indol-7-yl]-acrylic acid]
